Consider seven compounds from US11656221B2, “Methods to identify modulators of actin-binding proteins” (Regents of the University of Minnesota, priority 2019, dated 2023).

The target of data set [1] is T1, ternary complex consisting of GFP-ABD-L253P, Lifeact-mCherry, and actin (Homo sapiens, UniProt O15020, L253P).
T1 construct: L252P β-III-spectrin (human) ABD residues 1-284; expressed in transfected cells; host or cells: HEK293-6E, pTT5 vector, transient
Briefly: Primary live-cell time-resolved FRET assay (GFP-ABD-L253P plus Lifeact-mCherry). The format is cell-based. The conditions noted are these: for effect on FRET in primary screen (Hit, 4SD threshold): LOPAC compounds 10 μM, 120 min.

The target of data set [2] is T2, ABD-L253P (Homo sapiens, UniProt O15020, L253P).
T2 construct: His-SUMO (cleaved yes); made in house; host or cells: E. coli BL21(DE3), pE-SUMOpro
T2 sequence (O15020 1-284 L253P): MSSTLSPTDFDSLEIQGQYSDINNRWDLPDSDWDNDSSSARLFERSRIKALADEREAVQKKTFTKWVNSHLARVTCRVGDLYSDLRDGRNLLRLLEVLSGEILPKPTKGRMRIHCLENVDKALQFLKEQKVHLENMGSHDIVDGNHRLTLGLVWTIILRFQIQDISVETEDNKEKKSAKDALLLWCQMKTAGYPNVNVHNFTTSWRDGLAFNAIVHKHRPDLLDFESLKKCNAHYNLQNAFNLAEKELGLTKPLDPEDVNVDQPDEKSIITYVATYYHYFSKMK
Nature of the data set: Sedimentation of ABD L253P without actin (aggregation). The conditions noted are these: 10 μM. As for the experimental part:
(§1) F-actin and ABD binding assays were performed as previously described. In brief, binding assays used 1 μM ABD protein, 1 μM F-actin and 1-50 μM compound (as indicated) or DMSO control for a total reaction volume of 60 μL in F-buffer containing 10 mM Tris, pH 7.5, 150 mM NaCl, 0.5 mM ATP, 2 mM MgCl2, and 1 mM DTT. Following 30 min incubation at room temperature (21° C.). F-actin was pelleted using centrifugation at 100,000×g at 25° C. for 30 min. Unbound ABD in the supernatant was measured following SDS-PAGE and Coomassie blue staining in accord. In addition, control co-sedimentations assays that lacked actin were performed to test if compounds cause ABD aggregation. F-actin and Lifeact-mCherry binding assays were undertaken with 2 μM Lifeact-mCherry, 30 μM F-actin and 1-50 μM compound (as indicated) or DMSO control for a total reaction volume of 80 μL in F-buffer. For a no-actin binding control, an assay sample with no F-actin was also set up. Binding reactions were allowed to reach equilibrium at room temperature (21° C.) for 30 min and then F-actin was pelleted by centrifugation at 100,000×g at 25° C. for 30 min. The amount of unbound Lifeact-mCherry was sampled by loading 7 μL of spin supernatant on a low volume black bottom 384-well plate (Greiner). Amount of mCherry was determined by acquiring fluorescence spectrum peak intensity at ˜600 nm using a spectral unmixing plate reader (Fluorescence Innovations, Inc) equipped with a 532 nm laser (Laserglow Technologies, Ontario, Canada) for excitation, 532 nm longpass filter for emission, and PMT for emission detection. The fraction of Lifeact-mCherry bound to F-actin was determined by subtracting from one the fraction of supernatant fluorescence intensity relative to the no-actin control sample, using the following equation: […]
In addition to a reduction in cell viability, the primary and counter screen may be sensitive to compounds that promote ABD-L253P protein aggregation. […] Our ABD-L253P to actin co-sedimentation assay is unlikely to be sensitive to ABD aggregation, as it is set up to monitor maximal sedimentation of ABD-L253P with actin at ˜90% ABD-L253P co-sedimenting. To directly measure the impact of 10 μM Hit compounds on ABD aggregation, we repeated the ABD-actin co-sedimentation without actin present.

Data set [3] has as its target T3, Lifeact-mCherry binding to F-actin (Oryctolagus cuniculus, UniProt P68135).
T3 construct: Actin was purified from acetone powder derived from the psoas muscle; made in house; host or cells: actin from rabbit psoas muscle; Lifeact-mCherry from E. coli, pE-SUMOpro
Nature of the data set: F-actin and Lifeact-mCherry co-sedimentation assay. Also noted: species or system New Zealand white rabbit (Oryctolagus cuniculus). Here is the method: (§2) Actin was purified from acetone powder derived from the psoas muscle of New Zealand white rabbit (Oryctolagus cuniculus). Filamentous (F)-actin was stored for up to 3 days on ice before use in binding assays. Within an hour of the binding assay, the F-actin was clarified at 100,000×g at 4° C. for 10 min prior to setting up binding assays. The L253P β-III-spectrin ABD was expressed in E. coli BL21(DE3) (Novagen). The ABD was purified and the His-SUMO tag proteolytically removed, as previously described, except size-exclusion chromatography was not performed due to the high purity of the ABD protein. Lifeact-mCherry protein was similarly prepared. A Bradford assay was performed to determine clarified F-actin and ABD protein concentrations.
F-actin and ABD binding assays were performed as previously described. In brief, binding assays used 1 μM ABD protein, 1 μM F-actin and 1-50 μM compound (as indicated) or DMSO control for a total reaction volume of 60 μL in F-buffer containing 10 mM Tris, pH 7.5, 150 mM NaCl, 0.5 mM ATP, 2 mM MgCl2, and 1 mM DTT. Following 30 min incubation at room temperature (21° C.). F-actin was pelleted using centrifugation at 100,000×g at 25° C. for 30 min. Unbound ABD in the supernatant was measured following SDS-PAGE and Coomassie blue staining in accord. In addition, control co-sedimentations assays that lacked actin were performed to test if compounds cause ABD aggregation. F-actin and Lifeact-mCherry binding assays were undertaken with 2 μM Lifeact-mCherry, 30 μM F-actin and 1-50 μM compound (as indicated) or DMSO control for a total reaction volume of 80 μL in F-buffer. For a no-actin binding control, an assay sample with no F-actin was also set up. Binding reactions were allowed to reach equilibrium at room temperature (21° C.) for 30 min and then F-actin was pelleted by centrifugation at 100,000×g at 25° C. for 30 min. The amount of unbound Lifeact-mCherry was sampled by loading 7 μL of spin supernatant on a low volume black bottom 384-well plate (Greiner). Amount of mCherry was determined by acquiring fluorescence spectrum peak intensity at ˜600 nm using a spectral unmixing plate reader (Fluorescence Innovations, Inc) equipped with a 532 nm laser (Laserglow Technologies, Ontario, Canada) for excitation, 532 nm longpass filter for emission, and PMT for emission detection. The fraction of Lifeact-mCherry bound to F-actin was determined by subtracting from one the fraction of supernatant fluorescence intensity relative to the no-actin control sample, using the following equation:
[formula] • Where Fcontrol/DMSO is the peak mCherry fluorescence of assay samples containing compound or DMSO control, and Fno-actin is the peak mCherry fluorescence of assay samples that contained no F-actin. 2.9 Trypan Blue Cell Viability Assays

Data set [4] deals with T4, GFP-ABD-L253P and mCherry (non-specific FRET) in HEK293-6E cells (Homo sapiens, UniProt O15020, L253P).
T4 construct: L252P β-III-spectrin (human) ABD residues 1-284; expressed in transfected cells; host or cells: HEK293-6E, pTT5 vector, transient
T4 sequence (O15020 1-284 L253P): as above
Nature of the data set: Counter FRET assay, non-specific FRET (GFP-ABD-L253P plus mCherry). The format is cell-based. As to conditions: 0.1% Triton X-100, cell lysis. Here is the method: At 2×10^6 cells/mL, HEK293-6E cells were transfected with GFP-ABD (2.4 μg), Lifeact-mCherry (2.4-16.8 μg), mCherry (1.2-16.8 μg), and/or pTT5 (0.8-17.6 μg) using the 293fectin protocol (Thermo Fisher Scientific) with 20 μg total DNA. The cells were harvested 24 hours later by centrifugation at 100×g for 5 min, and then washed twice with PBS. Cell viability and concentration were determined using trypan blue assay and a Countess cell counter (Invitrogen).
Using a Multidrop Combi liquid dispenser (Thermo Fisher Scientific), 10^6 cells/mL were dispersed into 1536-well and 384-well plates as 5 or 50 μL aliquots, respectively. For control and tool compound plates, 100 nL of DMSO or potential tool compound was loaded using the Mantis (Formulatrix). […] Two to three hours after sample loading, fluorescence lifetime measurements were performed using high-throughput fluorescence plate-readers provided by Photonic Pharma LLC (MN, USA), including one detecting fluorescence lifetime and another detecting fluorescence spectra, as described previously.
To develop a biosensor that monitors the binding of mutant L253P β-III-spectrin to actin filaments in live cells, a fluorescence resonance energy transfer (FRET) approach was tested. […] To measure the non-specific component to our FRET readout, we concurrently tested expression of mCherry in place of Lifeact-mCherry. […]

The target of data set [5] is T5, ABD-L253P (L253P β-III-spectrin ABD) binding to F-actin (Homo sapiens, UniProt O15020, L253P).
T5 construct: His-SUMO (cleaved yes); made in house; host or cells: E. coli BL21(DE3), pE-SUMOpro; actin from rabbit psoas muscle
T5 sequence (O15020 1-284 L253P): as above
Nature of the data set: F-actin and ABD co-sedimentation assay. As to conditions: 50 μM, 1 μM ABD, 1 μM F-actin. As for the experimental part:
as §2
as §1, with “F-actin and Lifeact-mCherry binding assays were undertaken with 2 μM Lifeact-mCherry, 30 μM F-actin and 1-50 μM compound (as indicated) or DMSO control for a total reaction volume of 80 μL in F-buffer. For a no-actin binding control, an assay sample with no F-actin was also set up. Binding reactions were allowed to reach equilibrium at room temperature (21° C.) for 30 min and then F-actin was pelleted by centrifugation at 100,000×g at 25° C. for 30 min. The amount of unbound Lifeact-mCherry was sampled by loading 7 μL of spin supernatant on a low volume black bottom 384-well plate (Greiner).” left out

Data set [6] concerns HEK293-6E cells. Briefly: Trypan blue cell viability assay. The format is cell-based. As for the experimental part: HEK293-6E cell viability was measured using trypan blue (0.03%) staining and a Countess Automated Cell counter (Invitrogen). Non-transfected HEK293-6E cells were spun at 100×g for 5 min at 21° C., and resuspended in 10 mL of PBS. The centrifugation and resuspension were repeated twice more. Final cell concentration was 1×10^6 cells/mL. Cells were incubated with 2% DMSO, or 3-50 μM compound (as indicated) for 3 hrs at room temperature (21° C.). After addition of 100 μL of 0.06% trypan blue solution in PBS, 10 μL was loaded on a slide and injected into the cell counter, and cell viability was measured.

Entries after “also recorded” stand apart in the source; their conditions may differ.

T1 sequence (O15020 1-284 L253P, one chain of several): as the sequence (O15020 1-284 L253P) above

On to `CCCc1c(-c2ccc(O)cc2)nn(-c2ccc(O)cc2)c1-c1ccc(O)cc1` [PPT], for which, in data set [1], the “effect on FRET in primary screen (Hit, 4SD threshold)” value (shortened to “effect on FRET in primary screen”) is reported as “decrease FRET”. In addition, the “ABD L253P aggregation (pelleting without actin)” value in data set [2] was “increases ABD pelleting; also recorded: promote aggregation”.

For the compound `CCCCCCCC/C=C\CCCCCCCC(=O)NCc1ccc(O)c(OC)c1` [olvanil], in data set [1], the “effect on FRET in primary screen” value was “decrease FRET”. In addition, the “ABD L253P aggregation (pelleting without actin)” value in data set [2] is given as “increases ABD pelleting; also recorded: promote aggregation”.

Regarding `CC(C)(C)c1ccc(/C=C/C(=O)Nc2ccc3c(c2)OCCO3)cc1` [AMG 9810], the “effect on FRET in primary screen” value in data set [1] is “decrease FRET”. Moreover, the “ABD L253P aggregation (pelleting without actin)” value in data set [2] is reported as “increases ABD pelleting; also recorded: promote aggregation”.

With `O=C(O)c1cc([N+](=O)[O-])ccc1NCCCc1ccccc1` [NPPB], in data set [1], the “effect on FRET in primary screen” value is listed as “decrease FRET”. Further, the “effect on Lifeact-mCherry binding with actin” value (“effect … with actin” below) in data set [3] (10 μM) is reported as “decreased actin-Lifeact co-sedimentation; also recorded: reduce Lifeact-mCherry binding with actin”. Further, the “ABD L253P aggregation (pelleting without actin)” value in data set [2] was “promote aggregation”; in data set [2] (listed as NBBP), “increases ABD pelleting”.

For Triton X-100, in data set [1] (0.1% Triton X-100, cell lysis), the “effect on total FRET” value was “abolished”. Moreover, the “effect on non-specific FRET” value in data set [4] is “abolished”.

Turning to `[H]/N=C(/NCCCCC)N/N=C/c1c[nH]c2ccc(OC)cc12` [tegaserod], the “reduction of total FRET” value in data set [1] (50 μM, HEK293-6E cells, relative to DMSO) was found to be 83%. Also, the “effect on ABD-L253P binding to actin” value in data set [5] is “did not alter; also recorded: no significant effect”. In addition, the “effect … with actin” value in data set [3] (50 μM) is “did not alter and not”. Also, in data set [6] (50 μM, 3 hrs), the “decrease in cell viability” value worked out at 92% and the “effect on HEK293-6E cell viability” value is on record as “greatly diminished cell viability; also recorded: abolishes HEK293-6E cell viability”.

Consider `CC(C)(Sc1ccc(CCN(CCCCC2CCCCC2)C(=O)NC2CCCCC2)cc1)C(=O)O` [GW7647], for which the “effect on FRET in primary screen” value in data set [1] is “decrease FRET”. For the same compound, the “effect … with actin” value in data set [3] (10 μM) is listed as “decreased actin-Lifeact co-sedimentation; also recorded: reduce Lifeact-mCherry binding with actin”. Further, the “effect on HEK293-6E cell viability” value in data set [6] (10 μM, 3 hr incubation) is on record as “dramatically reduced cell viability; also recorded: reduces HEK293-6E cell viability”. Moreover, the “ABD L253P aggregation (pelleting without actin)” value in data set [2] was “increases ABD pelleting; also recorded: promote aggregation”.
